In patent USRE50528E1, “Compounds and compositions for modulating EGFR mutant kinase activities” (Yuhan Corporation, priority 2014, dated 2025):

Assays:
[1] = system: H1975 (EGFR L858R/T790M mutant); test: Cell viability assay, H1975; assay type: cell-based; conditions: for IC50: Homo sapiens, NCI-H1975, cellular potency, 72-hour incubation, ATPLite, read-out: EGFR Mutants H1975; for Selectivity over wildtype, Wildtype vs mutant H2073/H1975 (fold): cellular potency ratio;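 as to all read-outs here: NSCLC cells whose survival relies on EGFR L858R/T790M, exposed 72 h to serially diluted compound, ATP-based viability readout, with the H2073 line (wildtype EGFR dependent) as wildtype comparator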
[2] = system: PC9 (EGFR del E746-A750 mutant); test: Cell viability assay, PC9; assay type: cell-based; conditions: for Selectivity over wildtype, Wildtype vs mutant H2073/PC9 (fold): cellular potency ratio; for IC50: cellular potency, 72-hour incubation, ATPLite, read-out: EGFR Mutants PC9;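 as to all read-outs here: NSCLC PC9 cells, whose viability relies on EGFR del E746-A750, exposed to serially diluted compound for 72 h at 37 °C, ATPLite read-out, IC50, H2073 as EGFR wildtype line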
[3] = system: H2073 (EGFR wildtype); test: Cell viability assay, H2073; assay type: cell-based; conditions: NCI-H2073; cellular potency; 72-hour incubation; ATPLite;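 also: NSCLC cell line whose survival relies on wildtype EGFR, treated with serially diluted compound, cytotoxic effect judged from remaining cell viability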
[4] = molecular target: T1, SYK (Homo sapiens, UniProt P43405); test: Kinase inhibition assay, SYK; assay type: biochemical; conditions: biochemical potency;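 also: purified full-length human SYK pre-incubated 30 min with compound, then ULight-TK peptide phosphorylation for 1 h, detected with Europium-labeled antibody in Lance buffer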
T1 construct: Purified human, full-length SYK, KDR; purchased Carna Biosciences

[5] = molecular target: T2, EGFR mutant T790M (Homo sapiens, UniProt P00533, T790M); test: Kinase inhibition assay, EGFR mutant T790M; conditions: biochemical potency;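 also: truncated human EGFR mutant enzyme preincubated two hours with compound, then ATP plus ULight-PolyGT peptide for one hour, Europium-labeled antibody LANCE detection, IC50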
T2 construct: truncated human JAK3, EGFR mutants such as del E746-A750; purchased Carna Biosciences
T2 sequence (P00533 669-1210 T790M limits assumed): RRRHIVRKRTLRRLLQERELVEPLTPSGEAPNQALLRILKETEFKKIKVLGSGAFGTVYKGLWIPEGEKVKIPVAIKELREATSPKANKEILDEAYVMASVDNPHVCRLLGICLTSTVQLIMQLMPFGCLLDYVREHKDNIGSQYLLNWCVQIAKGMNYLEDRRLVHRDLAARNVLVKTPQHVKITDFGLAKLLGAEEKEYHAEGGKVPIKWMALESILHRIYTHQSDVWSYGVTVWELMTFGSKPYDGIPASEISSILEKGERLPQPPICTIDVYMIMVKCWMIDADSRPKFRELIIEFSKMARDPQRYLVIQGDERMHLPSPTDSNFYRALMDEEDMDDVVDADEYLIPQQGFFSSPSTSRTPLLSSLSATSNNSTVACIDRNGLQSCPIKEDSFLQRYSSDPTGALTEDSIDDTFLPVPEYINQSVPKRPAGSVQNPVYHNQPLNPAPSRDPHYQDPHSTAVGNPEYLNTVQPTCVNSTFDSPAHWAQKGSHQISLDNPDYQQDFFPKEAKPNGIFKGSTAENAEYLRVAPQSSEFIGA

[6] = molecular target: T3, EGFR mutant Del19 (E746-A750) (Homo sapiens, UniProt P00533, DEL746-750); test: Kinase inhibition assay, EGFR del E746-A750; assay type: biochemical; conditions: read-out: EGFR mutants Del19 (E746-A750);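 also: truncated human EGFR mutant kinase, two-hour preincubation with compound, then one-hour reaction with ATP and ULight-PolyGT peptide, LANCE Europium-antibody phosphorylation readout, IC50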
T3 construct: truncated human JAK3, EGFR mutants such as del E746-A750; purchased Carna Biosciences
T3 sequence (P00533 with tags, fused parts or gaps DEL746-750 limits assumed): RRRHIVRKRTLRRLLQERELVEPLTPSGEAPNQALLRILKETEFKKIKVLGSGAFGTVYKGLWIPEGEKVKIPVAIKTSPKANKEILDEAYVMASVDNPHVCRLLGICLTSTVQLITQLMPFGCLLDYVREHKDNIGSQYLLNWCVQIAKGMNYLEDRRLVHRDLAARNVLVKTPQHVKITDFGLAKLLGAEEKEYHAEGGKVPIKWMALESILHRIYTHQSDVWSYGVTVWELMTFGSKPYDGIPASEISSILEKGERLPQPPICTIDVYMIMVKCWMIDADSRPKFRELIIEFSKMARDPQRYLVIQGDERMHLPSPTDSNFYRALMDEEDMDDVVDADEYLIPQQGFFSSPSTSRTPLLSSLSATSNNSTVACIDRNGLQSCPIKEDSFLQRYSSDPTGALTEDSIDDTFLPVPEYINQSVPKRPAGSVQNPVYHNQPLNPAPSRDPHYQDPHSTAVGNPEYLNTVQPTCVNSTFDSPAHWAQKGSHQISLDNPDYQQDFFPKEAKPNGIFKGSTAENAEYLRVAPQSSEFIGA

[7] = molecular target: T4, EGFR mutant L858R/T790M (Homo sapiens, UniProt P00533, L858R/T790M); test: Kinase inhibition assay, EGFR L858R/T790M; assay type: biochemical; conditions: read-out: EGFR mutants L858R/T790M;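 also: truncated human enzyme preincubated two hours with compound, then one hour with one millimolar ATP and ULight-PolyGT peptide, Europium-labeled antibody detection, IC50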
T4 construct: truncated human JAK3, EGFR mutants such as del E746-A750; purchased Carna Biosciences
T4 sequence (P00533 669-1210 T790M/L858R limits assumed): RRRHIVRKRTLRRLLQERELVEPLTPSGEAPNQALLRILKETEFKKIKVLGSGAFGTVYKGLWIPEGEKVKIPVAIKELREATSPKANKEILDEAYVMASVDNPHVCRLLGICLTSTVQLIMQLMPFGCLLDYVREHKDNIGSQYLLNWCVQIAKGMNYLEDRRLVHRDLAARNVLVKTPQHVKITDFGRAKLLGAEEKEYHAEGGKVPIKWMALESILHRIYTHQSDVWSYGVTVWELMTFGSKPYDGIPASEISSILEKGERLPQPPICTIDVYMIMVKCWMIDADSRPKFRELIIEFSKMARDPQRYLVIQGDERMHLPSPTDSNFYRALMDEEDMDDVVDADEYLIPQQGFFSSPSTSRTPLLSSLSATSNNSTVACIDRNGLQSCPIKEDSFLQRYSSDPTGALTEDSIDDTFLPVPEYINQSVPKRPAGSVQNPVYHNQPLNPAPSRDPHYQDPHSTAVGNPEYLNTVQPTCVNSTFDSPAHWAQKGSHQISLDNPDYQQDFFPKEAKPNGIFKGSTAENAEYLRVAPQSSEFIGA

[8] = molecular target: T5, EGFR mutant L858R (Homo sapiens, UniProt P00533, L858R); test: Kinase inhibition assay, EGFR L858R; assay type: biochemical; conditions: read-out: EGFR mutants L858R;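 also: truncated human EGFR L858R kinase with compound preincubation, ULight-PolyGT peptide phosphorylation read by Europium-antibody Lance detection, IC50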
T5 construct: truncated human JAK3, EGFR mutants such as del E746-A750; purchased Carna Biosciences
T5 sequence (P00533 669-1210 L858R limits assumed): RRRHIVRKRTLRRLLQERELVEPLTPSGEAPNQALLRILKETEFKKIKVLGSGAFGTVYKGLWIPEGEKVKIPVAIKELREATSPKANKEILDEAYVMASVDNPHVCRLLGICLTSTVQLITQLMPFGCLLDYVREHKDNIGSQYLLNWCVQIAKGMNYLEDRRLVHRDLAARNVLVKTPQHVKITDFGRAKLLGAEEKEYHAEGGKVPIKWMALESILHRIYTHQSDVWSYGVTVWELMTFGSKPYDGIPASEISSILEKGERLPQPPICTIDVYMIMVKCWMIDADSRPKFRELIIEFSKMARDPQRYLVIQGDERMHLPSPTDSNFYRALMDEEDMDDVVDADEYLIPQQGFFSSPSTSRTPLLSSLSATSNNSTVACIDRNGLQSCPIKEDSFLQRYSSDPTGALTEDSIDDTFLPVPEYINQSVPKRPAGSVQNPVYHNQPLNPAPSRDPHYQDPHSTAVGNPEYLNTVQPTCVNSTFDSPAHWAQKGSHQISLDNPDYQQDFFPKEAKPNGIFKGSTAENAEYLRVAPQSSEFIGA

[9] = molecular target: T6, EGFR mutant Del19/T790M (Homo sapiens, UniProt P00533, DEL746-750/T790M); test: Kinase inhibition assay, EGFR del E746-A750/T790M; assay type: biochemical; conditions: read-out: EGFR mutants Del19/T790M
T6 construct: truncated human JAK3, EGFR mutants such as del E746-A750; purchased Carna Biosciences
T6 sequence (P00533 with tags, fused parts or gaps DEL746-750/T790M limits assumed): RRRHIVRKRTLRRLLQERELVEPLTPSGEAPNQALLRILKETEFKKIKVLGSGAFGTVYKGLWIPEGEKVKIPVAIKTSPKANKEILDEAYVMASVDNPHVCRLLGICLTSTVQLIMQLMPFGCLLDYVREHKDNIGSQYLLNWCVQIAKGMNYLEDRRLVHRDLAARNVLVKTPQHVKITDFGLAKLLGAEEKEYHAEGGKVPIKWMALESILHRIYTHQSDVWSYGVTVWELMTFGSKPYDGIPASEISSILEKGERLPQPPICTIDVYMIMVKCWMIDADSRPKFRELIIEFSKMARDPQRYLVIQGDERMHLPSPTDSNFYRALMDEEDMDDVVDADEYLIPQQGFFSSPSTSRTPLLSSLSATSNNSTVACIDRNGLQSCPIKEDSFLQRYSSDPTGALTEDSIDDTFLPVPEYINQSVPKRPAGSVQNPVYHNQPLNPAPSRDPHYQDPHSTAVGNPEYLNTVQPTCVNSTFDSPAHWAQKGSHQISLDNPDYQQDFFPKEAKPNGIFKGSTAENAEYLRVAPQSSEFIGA

IC50 [1] | IC50 [2] | IC50 [3] | IC50 [4] | IC50 [5] | IC50 [6] | IC50 [7] | IC50 [8] | IC50 [9] | SMILES | Selectivity over wildtype, Wildtype vs mutant H2073/H1975 (fold) [1] | Selectivity over wildtype, Wildtype vs mutant H2073/PC9 (fold) [2]
201 to 1000 nM | 201 to 1000 nM | > 1000 nM | – | – | – | – | – | – | CC/C=C/C(=O)Nc1cc(Nc2nccc(-n3cc(CN(C)C)c(-c4ccccc4)n3)n2)c(OC)cc1N1CCOCC1 [Compound 155, (E)-N-(5-(4-(4-((dimethylamino)methyl)-3-phenyl-1H-pyrazol-1-yl)pyrimidin-2-ylamino)-4-methoxy-2-morpholinophenyl)pent-2-enamide, reference compound] | <20 fold | <20 fold
– | – | – | > 1000 nM | < 20 nM | < 20 nM | < 20 nM | < 20 nM | < 20 nM | C=CC(=O)Nc1cc(Nc2nccc(-n3cc(CN(C)C)c(-c4ccccc4)n3)n2)c(OC)cc1N(C)C [Compound 83, N-(2-(dimethylamino)-5-(4-(4-((dimethylamino)methyl)-3-phenyl-1H-pyrazol-1-yl)pyrimidin-2-ylamino)-4-methoxyphenyl)acrylamide] | – | –
– | – | – | > 1000 nM | < 20 nM | < 20 nM | < 20 nM | < 20 nM | < 20 nM | C=CC(=O)Nc1cc(Nc2nccc(-n3cc(CN4CCC4)c(-c4ccccc4)n3)n2)c(OC)cc1N(C)CCOC [Compound 95, N-(5-(4-(4-(azetidin-1-ylmethyl)-3-phenyl-1H-pyrazol-1-yl)pyrimidin-2-ylamino)-4-methoxy-2-((2-methoxyethyl)(methyl)amino)phenyl)acrylamide] | – | –
– | – | – | > 1000 nM | < 20 nM | < 20 nM | < 20 nM | < 20 nM | < 20 nM | C=CC(=O)Nc1cc(Nc2nccc(-n3cc(CN(C)C)c(-c4ccccc4)n3)n2)c(OC)cc1N(C)CCOC [Compound 94] | – | –
– | – | – | 201 to 1000 nM | < 20 nM | < 20 nM | < 20 nM | < 20 nM | < 20 nM | C=CC(=O)Nc1cc(Nc2ncc(F)c(-n3cc(C)c(CN4CCC4)c3)n2)c(OC)cc1N1CCC1 [Compound 141, N-(2-(azetidin-1-yl)-5-(4-(3-(azetidin-1-ylmethyl)-4-methyl-1H-pyrrol-1-yl)-5-fluoropyrimidin-2-ylamino)-4-methoxyphenyl)acrylamide] | – | –
– | – | – | 201 to 1000 nM | < 20 nM | < 20 nM | < 20 nM | < 20 nM | < 20 nM | C=CC(=O)Nc1cc(Nc2ncc(C)c(-n3cc(CN4CC[C@H](O)C4)c(C)n3)n2)c(OC)cc1N1CCOCC1 [Compound 28, (S)—N-(5-(4-(4-((3-hydroxypyrrolidin-1-yl)methyl)-3-methyl-1H-pyrazol-1-yl)-5-methylpyrimidin-2-ylamino)-4-methoxy-2-morpholinophenyl)acrylamide] | – | –
201 to 1000 nM | 20 to 200 nM | > 1000 nM | – | – | – | – | – | – | C=CCC(=O)Nc1cc(Nc2nccc(-n3cc(CN(C)C)c(-c4ccccc4)n3)n2)c(OC)cc1N1CCOCC1 [Compound 154, N-(5-(4-(4-((dimethylamino)methyl)-3-phenyl-1H-pyrazol-1-yl)pyrimidin-2-ylamino)-4-methoxy-2-morpholinophenyl)but-3-enamide, reference compound] | <20 fold | <20 fold
– | – | – | 20 to 200 nM | < 20 nM | < 20 nM | < 20 nM | < 20 nM | < 20 nM | C=CC(=O)Nc1cc(Nc2nccc(-n3cc(CN(C)C)c(C4CC4)n3)n2)c(OC)cc1N(C)C1COC1 [Compound 108, N-(5-(4-(3-cyclopropyl-4-((dimethylamino)methyl)-1H-pyrazol-1-yl)pyrimidin-2-ylamino)-4-methoxy-2-(methyl(oxetan-3-yl)amino)phenyl)acrylamide] | – | –
– | – | – | > 1000 nM | < 20 nM | 20 to 200 nM | 20 to 200 nM | 20 to 200 nM | < 20 nM | C=CC(=O)Nc1cc(Nc2ncc(C)c(-n3cc(CN4CCOCC4)cn3)n2)c(OC)cc1N1CCN(C)CC1 [Compound 33, N-(4-methoxy-5-(5-methyl-4-(4-(morpholinomethyl)-1H-pyrazol-1-yl)pyrimidin-2-ylamino)-2-(4-methylpiperazin-1-yl)phenyl)acrylamide] | – | –
– | – | – | > 1000 nM | > 1000 nM | > 1000 nM | 201 to 1000 nM | > 1000 nM | > 1000 nM | Cc1cn(-c2ccnc(Nc3ccc(-c4ccccc4)c(C)c3)n2)cc1CN1CC(O)C1 [Compound 150, 1-((4-methyl-1-(2-(2-methylbiphenyl-4-ylamino)pyrimidin-4-yl)-1H-pyrrol-3-yl)methyl)azetidin-3-ol, reference compound] | – | –
– | – | – | > 1000 nM | < 20 nM | < 20 nM | < 20 nM | < 20 nM | < 20 nM | C=CC(=O)Nc1cc(Nc2nccc(-n3cc(CN4C[C@H](O)[C@H](OC)C4)c(C4CC4)n3)n2)c(OC)cc1N1CCOCC1 [Compound 56, N-(5-(4-(3-cyclopropyl-4-(((3S,4R)-3-hydroxy-4-methoxypyrrolidin-1-yl)methyl)-1H-pyrazol-1-yl)pyrimidin-2-ylamino)-4-methoxy-2-morpholinophenyl)acrylamide] | – | –
– | – | – | > 1000 nM | < 20 nM | < 20 nM | < 20 nM | < 20 nM | < 20 nM | C=CC(=O)Nc1cc(Nc2nccc(-n3cc(CN4CCC4)c(C(C)C)n3)n2)c(OC)cc1N(C)C1COC1 [Compound 115] | – | –
> 1000 nM | > 1000 nM | > 1000 nM | > 1000 nM | – | > 1000 nM | 201 to 1000 nM | > 1000 nM | 20 to 200 nM | CC/C=C\CC(=O)Nc1cc(Nc2nccc(-n3cc(CN(C)C)c(-c4ccccc4)n3)n2)c(OC)cc1N1CCOCC1 [Compound 156, (Z)—N-(5-(4-(4-((dimethylamino)methyl)-3-phenyl-1H-pyrazol-1-yl)pyrimidin-2-ylamino)-4-methoxy-2-morpholinophenyl)hex-3-enamide, reference compound] | <20 fold | <20 fold
– | – | – | > 1000 nM | < 20 nM | < 20 nM | < 20 nM | < 20 nM | < 20 nM | C=CC(=O)Nc1cc(Nc2nccc(-n3cc(CN(C)C)c(-c4ccccc4)n3)n2)c(OC)cc1N1CCN(C(C)=O)CC1 [Compound 135, N-(2-(4-acetylpiperazin-1-yl)-5-(4-(4-((dimethylamino)methyl)-3-phenyl-1H-pyrazol-1-yl)pyrimidin-2-ylamino)-4-methoxyphenyl)acrylamide] | – | –
– | – | – | > 1000 nM | 201 to 1000 nM | 20 to 200 nM | 20 to 200 nM | 20 to 200 nM | 20 to 200 nM | C=CC(=O)Nc1cc(Nc2nccc(-n3cc(CN4CC(OC)C4)c(C)n3)n2)c(OC)cc1N1CCOCC1 [Compound 44, N-(4-methoxy-5-(4-(4-((3-methoxyazetidin-1-yl)methyl)-3-methyl-1H-pyrazol-1-yl)pyrimidin-2-ylamino)-2-morpholinophenyl)acrylamide] | – | –
– | – | – | 201 to 1000 nM | < 20 nM | < 20 nM | < 20 nM | < 20 nM | < 20 nM | C=CC(=O)Nc1cc(Nc2ncc(F)c(-n3cc(CN4CCC4)c(-c4ccoc4)c3)n2)c(OC)cc1N1CCOCC1 [Compound 130, N-(5-(4-(3-(azetidin-1-ylmethyl)-4-(furan-3-yl)-1H-pyrrol-1-yl)-5-fluoropyrimidin-2-ylamino)-4-methoxy-2-morpholinophenyl)acrylamide] | – | –
– | – | – | 201 to 1000 nM | < 20 nM | < 20 nM | < 20 nM | < 20 nM | < 20 nM | C=CC(=O)Nc1cc(Nc2ncc(Cl)c(-n3cc(CN(C)C)c(C)n3)n2)c(OC)cc1N1CCOCC1 [Compound 52, N-(5-(5-chloro-4-(4-((dimethylamino)methyl)-3-methyl-1H-pyrazol-1-yl)pyrimidin-2-ylamino)-4-methoxy-2-morpholinophenyl)acrylamide] | – | –
– | – | – | 20 to 200 nM | < 20 nM | < 20 nM | < 20 nM | < 20 nM | < 20 nM | C=CC(=O)Nc1cc(Nc2nccc(-n3cc(CN4CCC4)c(C4CC4)n3)n2)c(OC)cc1N(C)CCOC [Compound 107, N-(5-(4-(4-(azetidin-1-ylmethyl)-3-cyclopropyl-1H-pyrazol-1-yl)pyrimidin-2-ylamino)-4-methoxy-2-((2-methoxyethyl)(methyl)amino)phenyl)acrylamide] | – | –
